{
  "source": "patent US12247032B2",
  "about": "“Substituted pyrazolo[1,5-a]pyrimidines as inhibitors of JAK kinases” (Genentech, Inc., priority 2019, dated 2025)",
  "note": "pKi: −log10 of the molar value.",
  "data": [
    {"molecular_target": "T1, recombinant human JAK1 kinase domain protein (Residues 854-1154) (Homo sapiens, UniProt P23458)", "T1 construct": "human JAK1 kinase domain protein (Residues 854-1154); purchased Proteros Biostructures GmbH (Martinsried, Germany); host or cells: insect cells", "T1 sequence (P23458 854-1154)": "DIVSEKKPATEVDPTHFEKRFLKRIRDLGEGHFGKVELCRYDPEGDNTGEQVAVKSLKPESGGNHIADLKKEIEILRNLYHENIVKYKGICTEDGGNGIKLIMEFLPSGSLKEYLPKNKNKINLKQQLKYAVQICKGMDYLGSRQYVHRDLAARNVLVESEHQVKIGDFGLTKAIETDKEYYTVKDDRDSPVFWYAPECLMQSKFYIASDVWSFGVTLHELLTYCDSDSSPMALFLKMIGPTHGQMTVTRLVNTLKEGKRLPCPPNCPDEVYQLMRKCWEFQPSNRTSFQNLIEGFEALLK", "experiment": "JAK1 biochemical assay (microfluidic mobility shift, peptide phosphorylation)", "settings": "25 μM ATP, 1 nM total JAK1; Ki calculated from Ki app (tight-binding, competitive); read-out: Biochem JAK1 Ki", "in_short": "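Insect-cell-expressed human JAK1 (1 nM, residues 854-1154) or JAK2 (0.2 nM, residues 812-1132) phosphorylating 1.5 μM 5-FAM peptide Y-1B with 25 μM ATP, pH 7.2 HEPES, 30 min at 22-23 °C; twelve concentrations up to 1000 nM in duplicate. Mobility-shift % conversion fitted to tight-binding quadratic for Ki^app.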", "values": [
      {"molecule": "CN1CC(n2nnc(Cn3cc(NC(=O)c4cnn5cccnc45)c(-c4cc(Cl)ccc4OC(F)F)n3)n2)C1", "note": "[Example 7, N-[3-[5-chloro-2-(difluoromethoxy)phenyl]-1-[[2-(1-methylazetidin-3-yl)tetrazol-5-yl]methyl]pyrazol-4-yl]pyrazolo[1,5-a]pyrimidine-3-carboxamide]", "pKi": 9.38},
      {"molecule": "CN1CC(N2CC(n3nnc(Cn4cc(NC(=O)c5cnn6cccnc56)c(-c5cc(OC(F)F)ccc5OC(F)F)n4)n3)C2)C1", "note": "[Example 78, N-[3-[2,5-bis(difluoromethoxy)phenyl]-1-[[2-[1-(1-methylazetidin-3-yl)azetidin-3-yl]tetrazol-5-yl]methyl]pyrazol-4-yl]pyrazolo[1,5-a]pyrimidine-3-carboxamide; formic acid]", "pKi": 9.36},
      {"molecule": "O=C(Nc1cn(Cc2nnnn2C2CNC2)nc1-c1cc(OC(F)F)ccc1OC(F)F)c1cnn2cccnc12", "note": "[Example 12, N-[1-[[1-(azetidin-3-yl)tetrazol-5-yl]methyl]-3-[2,5-bis(difluoromethoxy)phenyl]pyrazol-4-yl]pyrazolo[1,5-a]pyrimidine-3-carboxamide]", "pKi": 9.68},
      {"molecule": "CSc1ccc(OC(F)F)c(-c2nn(Cc3nnn(C4CN(CCCN(C)C)C4)n3)cc2NC(=O)c2cnn3cccnc23)c1", "note": "[Example 58, N-[3-[2-(difluoromethoxy)-5-methylsulfanyl-phenyl]-1-[[2-[1-[3-(dimethylamino)propyl]azetidin-3-yl]tetrazol-5-yl]methyl]pyrazol-4-yl]pyrazolo[1,5-a]pyrimidine-3-carboxamide]", "pKi": 9.39},
      {"molecule": "NCCn1nnc(Cn2cc(NC(=O)c3cnn4cccnc34)c(-c3cc(OC(F)F)ccc3OC(F)F)n2)n1", "note": "[Example 13, N-[1-[[2-(2-aminoethyl)tetrazol-5-yl]methyl]-3-[2,5-bis(difluoromethoxy)phenyl]pyrazol-4-yl]pyrazolo[1,5-a]pyrimidine-3-carboxamide]", "pKi": 9.60},
      {"molecule": "CN(C)CCN1CC(n2nnc(Cn3cc(NC(=O)c4cnn5cccnc45)c(-c4cc(OC(F)F)ccc4OC(F)F)n3)n2)C1", "note": "[Example 21, N-[3-[2,5-bis(difluoromethoxy)phenyl]-1-[[2-[1-[2-(dimethylamino)ethyl]azetidin-3-yl]tetrazol-5-yl]methyl]pyrazol-4-yl]pyrazolo[1,5-a]pyrimidine-3-carboxamide]", "pKi": 9.40},
      {"molecule": "CN(C)CCn1nnnc1Cn1cc(NC(=O)c2cnn3cccnc23)c(-c2cc(OC(F)F)ccc2OC(F)F)n1", "note": "[Example 17, N-[3-[2,5-bis(difluoromethoxy)phenyl]-1-[[1-[2-(dimethylamino)ethyl]tetrazol-5-yl]methyl]pyrazol-4-yl]pyrazolo[1,5-a]pyrimidine-3-carboxamide]", "pKi": 9.37},
      {"molecule": "CN(C)CCN1CCC(n2nnc(Cn3cc(NC(=O)c4cnn5cccnc45)c(-c4cc(OC(F)F)ccc4OC(F)F)n3)n2)CC1", "note": "[Example 61, N-[3-[2,5-bis(difluoromethoxy)phenyl]-1-[[2-[1-[2-(dimethylamino)ethyl]-4-piperidyl]tetrazol-5-yl]methyl]pyrazol-4-yl]pyrazolo[1,5-a]pyrimidine-3-carboxamide]", "pKi": 9.20},
      {"molecule": "CN1CCC(n2nnc(Cn3cc(NC(=O)c4cnn5cccnc45)c(-c4cc(OC(F)F)ccc4OC(F)F)n3)n2)CC1", "note": "[Example 22]", "pKi": 9.36},
      {"molecule": "CN(C)CCN1CC(n2nnc(Cn3cc(NC(=O)c4cnn5cccnc45)c(-c4cc(Cl)ccc4OC(F)F)n3)n2)C1", "note": "[Example 37, N-[3-[5-chloro-2-(difluoromethoxy)phenyl]-1-[[2-[1-[2-(dimethylamino)ethyl]azetidin-3-yl]tetrazol-5-yl]methyl]pyrazol-4-yl]pyrazolo[1,5-a]pyrimidine-3-carboxamide]", "pKi": 9.32},
      {"molecule": "CN1CC(n2nnc(Cn3cc(NC(=O)c4cnn5cccnc45)c(-c4cc(OC(F)F)ccc4OC(F)F)n3)n2)C1", "note": "[Example 10, N-[3-[2,5-bis(difluoromethoxy)phenyl]-1-[[2-(1-methylazetidin-3-yl)tetrazol-5-yl]methyl]pyrazol-4-yl]pyrazolo[1,5-a]pyrimidine-3-carboxamide]", "pKi": 9.48},
      {"molecule": "NCCn1nnnc1Cn1cc(NC(=O)c2cnn3cccnc23)c(-c2cc(OC(F)F)ccc2OC(F)F)n1", "note": "[Example 14, N-[1-[[1-(2-aminoethyl)tetrazol-5-yl]methyl]-3-[2,5-bis(difluoromethoxy)phenyl]pyrazol-4-yl]pyrazolo[1,5-a]pyrimidine-3-carboxamide]", "pKi": 9.59},
      {"molecule": "CN1CC(n2nnc(Cn3cc(NC(=O)c4cnn5cccnc45)c(-c4cc(C5CC5)ccc4OC(F)F)n3)n2)C1", "note": "[Example 23, N-[3-[5-cyclopropyl-2-(difluoromethoxy)phenyl]-1-[[2-(1-methylazetidin-3-yl)tetrazol-5-yl]methyl]pyrazol-4-yl]pyrazolo[1,5-a]pyrimidine-3-carboxamide]", "pKi": 9.38},
      {"molecule": "CN(CCN1CC(n2nnc(Cn3cc(NC(=O)c4cnn5cccnc45)c(-c4cc(OC(F)F)ccc4OC(F)F)n3)n2)C1)C(=O)OC(C)(C)C", "note": "[Example 31, tert-butyl N-[2-[3-[5-[[3-[2,5-bis(difluoromethoxy)phenyl]-4-(pyrazolo[1,5-a]pyrimidine-3-carbonylamino)pyrazol-1-yl]methyl]tetrazol-2-yl]azetidin-1-yl]ethyl]-N-methyl-carbamate]", "pKi": 9.47},
      {"molecule": "O=C(Nc1cn(Cc2nnn(C3CNC3)n2)nc1-c1cc(OC(F)F)ccc1OC(F)F)c1cnn2cccnc12", "note": "[Example 11, N-[1-[[2-(azetidin-3-yl)tetrazol-5-yl]methyl]-3-[2,5-bis(difluoromethoxy)phenyl]pyrazol-4-yl]pyrazolo[1,5-a]pyrimidine-3-carboxamide]", "pKi": 9.41},
      {"molecule": "CN(C)[C@H]1C[C@H](N2CC(n3nnc(Cn4cc(NC(=O)c5cnn6cccnc56)c(-c5cc(OC(F)F)ccc5OC(F)F)n4)n3)C2)C1", "note": "[Example 70, N-[3-[2,5-bis(difluoromethoxy)phenyl]-1-[[2-[1-[3-(dimethylamino)cyclobutyl]azetidin-3-yl]tetrazol-5-yl]methyl]pyrazol-4-yl]pyrazolo[1,5-a]pyrimidine-3-carboxamide]", "pKi": 9.19},
      {"molecule": "O=C(Nc1cn(Cc2nnn(C3CCNCC3)n2)nc1-c1cc(OC(F)F)ccc1OC(F)F)c1cnn2cccnc12", "note": "[Example 18, N-[3-[2,5-bis(difluoromethoxy)phenyl]-1-[[2-(4-piperidyl)tetrazol-5-yl]methyl]pyrazol-4-yl]pyrazolo[1,5-a]pyrimidine-3-carboxamide]", "pKi": 9.29},
      {"molecule": "CN(C)CCn1nnc(Cn2cc(NC(=O)c3cnn4cccnc34)c(-c3cc(OC(F)F)ccc3OC(F)F)n2)n1", "note": "[Example 16, N-[3-[2,5-bis(difluoromethoxy)phenyl]-1-[[2-[2-(dimethylamino)ethyl]tetrazol-5-yl]methyl]pyrazol-4-yl]pyrazolo[1,5-a]pyrimidine-3-carboxamide]", "pKi": 9.35},
      {"molecule": "CN1CC(n2nnnc2Cn2cc(NC(=O)c3cnn4cccnc34)c(-c3cc(Cl)ccc3OC(F)F)n2)C1", "note": "[Example 15, N-[3-[5-chloro-2-(difluoromethoxy)phenyl]-1-[[1-(1-methylazetidin-3-yl)tetrazol-5-yl]methyl]pyrazol-4-yl]pyrazolo[1,5-a]pyrimidine-3-carboxamide]", "pKi": 9.66},
      {"molecule": "CNCCn1nnnc1Cn1cc(NC(=O)c2cnn3cccnc23)c(-c2cc(OC(F)F)ccc2OC(F)F)n1", "note": "[Example 19, N-[3-[2,5-bis(difluoromethoxy)phenyl]-1-[[1-[2-(methylamino)ethyl]tetrazol-5-yl]methyl]pyrazol-4-yl]pyrazolo[1,5-a]pyrimidine-3-carboxamide]", "pKi": 9.66},
      {"molecule": "CN1CCC(N2CC(n3nnc(Cn4cc(NC(=O)c5cnn6cccnc56)c(-c5cc(OC(F)F)ccc5OC(F)F)n4)n3)C2)CC1", "note": "[Example 38, N-[3-[2,5-bis(difluoromethoxy)phenyl]-1-[[2-[1-(1-methyl-4-piperidyl)azetidin-3-yl]tetrazol-5-yl]methyl]pyrazol-4-yl]pyrazolo[1,5-a]pyrimidine-3-carboxamide]", "pKi": 9.32},
      {"molecule": "O=C(Nc1cn(Cc2nnn(C3CNC3)n2)nc1-c1cc(Cl)ccc1OC(F)F)c1cnn2cccnc12", "note": "[Example 8, N-[1-[[2-(azetidin-3-yl)tetrazol-5-yl]methyl]-3-[5-chloro-2-(difluoromethoxy)phenyl]pyrazol-4-yl]pyrazolo[1,5-a]pyrimidine-3-carboxamide]", "pKi": 9.30},
      {"molecule": "CNCCn1nnc(Cn2cc(NC(=O)c3cnn4cccnc34)c(-c3cc(OC(F)F)ccc3OC(F)F)n2)n1", "note": "[Example 20, N-[3-[2,5-bis(difluoromethoxy)phenyl]-1-[[2-[2-(methylamino)ethyl]tetrazol-5-yl]methyl]pyrazol-4-yl]pyrazolo[1,5-a]pyrimidine-3-carboxamide]", "pKi": 9.24},
      {"molecule": "CN1CCC(n2nnnc2Cn2cc(NC(=O)c3cnn4cccnc34)c(-c3cc(OC(F)F)ccc3OC(F)F)n2)C1", "note": "(centres unmarked) [Example 26, N-[3-[2,5-bis(difluoromethoxy)phenyl]-1-[[1-(1-methylpyrrolidin-3-yl)tetrazol-5-yl]methyl]pyrazol-4-yl]pyrazolo[1,5-a]pyrimidine-3-carboxamide]", "pKi": 9.29},
      {"molecule": "O=C(Nc1cn(Cc2nnn(C3CCNC3)n2)nc1-c1cc(OC(F)F)ccc1OC(F)F)c1cnn2cccnc12", "note": "(single isomer, unassigned) [Example 28, N-[3-[2,5-bis(difluoromethoxy)phenyl]-1-[(2-pyrrolidin-3-yltetrazol-5-yl)methyl]pyrazol-4-yl]pyrazolo[1,5-a]pyrimidine-3-carboxamide]", "pKi": 9.52},
      {"molecule": "CN1CCC(N2CC(n3nnc(Cn4cc(NC(=O)c5cnn6cccnc56)c(-c5cc(OC(F)F)ccc5OC(F)F)n4)n3)C2)C1", "note": "(single isomer, unassigned) [Example 72, N-[3-[2,5-bis(difluoromethoxy)phenyl]-1-[[2-[1-(1-methylpyrrolidin-3-yl)azetidin-3-yl]tetrazol-5-yl]methyl]pyrazol-4-yl]pyrazolo[1,5-a]pyrimidine-3-carboxamide]", "pKi": 9.21}
    ]}
  ]
}
